Calls of active or inactive are those of the source. No cut-off for these calls is given here.
Legend:
GM04663 [1] = experiment: Corrector activity at aberrant splicing of ELP1 gene […] mutant (unknown origin) in human GM04663 cells assessed as increase in exon 20 inclusion at 10 uM by Capillary electrophoresis; format: cell-based
GM04663 [2] = experiment: Corrector activity at aberrant splicing of ELP1 gene […] mutant (unknown origin) in human GM04663 cells assessed as increase in exon 20 inclusion at 50 uM by Capillary electrophoresis; format: cell-based
[3] = Cytotoxicity against human GM04663 cell assessed as decrease in resazurin signal incubated with resazurin for 48 hrs by M2 reader analysis; format: functional; parameters: scale not given: the % may be the effect or the level left
BJ = experiment: Cytotoxicity against human BJ cell assessed as decrease in resazurin signal incubated with resazurin for 3 hrs by M2 reader analysis; format: toxicity, cell-based; parameters: scale not given: the % may be the effect or the level left
HaCaT = experiment: Cytotoxicity against human HaCaT cell assessed as decrease in resazurin signal incubated with resazurin for 3 hrs by M2 reader analysis; format: toxicity, cell-based; parameters: scale not given: the % may be the effect or the level left
ARPE-19 = experiment: Cytotoxicity against human ARPE-19 cell assessed as decrease in resazurin signal incubated with resazurin for 1 hrs by M2 reader analysis; format: toxicity, cell-based; parameters: scale not given: the % may be the effect or the level left; settings: arpe-19, 1 h

SMILES	Activity (GM04663 [1])	other results
Nc1nc2c(NCc3ccco3)nc(Cl)nc2[nH]1	inactive	
C=CCNc1nc2c(NCc3ccco3)ncnc2[nH]1	Active	
c1coc(CNc2ncnc3[nH]c(NCCCN4CCOCC4)nc23)c1	Active	
CN(Cc1ccco1)c1cc(Cl)nc(N)n1		Activity (GM04663 [2]): Active
c1coc(CNc2ncnc3[nH]cnc23)c1	Active	
Nc1c(Cl)ncnc1NCc1ccco1		Activity (GM04663 [2]): Active
c1ccc(Nc2nc3c(NCc4ccco4)ncnc3[nH]2)cc1	Active	Activity [3]: >20%; Activity (BJ): > 20%; Activity (HaCaT): > 20%; Activity (ARPE-19): < 20%
Ic1nc2c(NCc3ccco3)ncnc2[nH]1	inactive	
Cn1cnc2ncnc(NCc3ccco3)c21	Active	
Nc1nc2c(NCc3ccco3)ncnc2[nH]1	Active	
NCCNc1nc2c(NCc3ccco3)ncnc2[nH]1	Active	
c1ccc(CNc2nc3c(NCc4ccco4)ncnc3[nH]2)cc1	Active	Activity [3]: >20%; Activity (BJ): > 20%; Activity (HaCaT): > 20%; Activity (ARPE-19): < 20%
Clc1cc(NCc2ccco2)ncn1		Activity (GM04663 [2]): Active
Fc1nc(NCc2ccco2)c2nc[nH]c2n1	Active	Activity [3]: >20%; Activity (BJ): > 20%; Activity (HaCaT): > 20%; Activity (ARPE-19): < 20%
O=c1[nH]c2ncnc(NCc3ccco3)c2[nH]1	Active	
Clc1nc(NCc2ccco2)c2[nH]cnc2n1	Active	Activity [3]: >20%; Activity (BJ): > 20%; Activity (HaCaT): > 20%; Activity (ARPE-19): < 20%
CCCOc1nc2c(NCc3ccco3)ncnc2[nH]1	Active	
Cn1cnc2nc(Cl)nc(NCc3ccco3)c21	Active	
CN(C)CCNc1nc2c(NCc3ccco3)ncnc2[nH]1	Active	
CCCn1cnc2ncnc(NCc3ccco3)c21	inactive	
CSc1nc2c(NCc3ccco3)ncnc2[nH]1	Active	
Nc1nc(Cl)cc(NCc2ccco2)n1		Activity (GM04663 [2]): Active
COc1nc2c(NCc3ccco3)ncnc2[nH]1	Active	
Clc1nc(NCc2ccco2)c2nc(Cl)[nH]c2n1	Active	
c1csc(CNc2[nH]cnc3ncnc2-3)c1	inactive	
CN(C)CCOc1nc2c(NCc3ccco3)ncnc2[nH]1	Active	

Source: ChEMBL document CHEMBL6121015, “Correction of aberrant splicing of ELP1 pre-mRNA by kinetin derivatives - A structure activity relationship study” (Eur J Med Chem, 2025)
